The data set is described as follows: Human HepG2 cell viability assay in 384 well format. It counts as toxicity, cell-based. The arrangement: dose 125 nL, time 70.5 hour; concentration not given beside the values. The following applies: HepG2 cells, read-out: Inhibition.

As for `O=C1NCC2=C1C(c1ccccc1)Nc1ccccc1N2` (stereo unspecified), the cytotoxicity at 70.5 h was -2.81%. In the case of `Cc1cccc(NC(=O)C2CC(=O)n3cnnc3S2)c1` (stereo unspecified) it was -0.584%; in that of `CN(CC(=O)N1CCc2[nH]c3ccc(F)cc3c2C1)CC1OCCO1`, 3.34%.

Take `CCSc1nnc(N(CCC#N)CCC#N)s1`: the cytotoxicity at 70.5 h is 1.21%. On to `Cc1ccc(C)c(CSc2nnc([C@@H](N)C(C)C)o2)c1`, for which the cytotoxicity at 70.5 h was -0.583%. On to `CSc1nnc(N(CCC#N)CCC#N)s1`, for which the cytotoxicity at 70.5 h worked out at 6.15%. On to `O=C(O)Cn1ccc(=O)c2cc(Cl)ccc21`, for which the cytotoxicity at 70.5 h is -16.7%. The same measure for `O=C(O)Cn1ccc(=O)c2ccccc21`: -14.9%; for `Nc1cccnc1N1CCC(c2ccccc2)CC1`: 25%. The same measure for `COC(=O)CCn1ccc(=O)c2cc(F)ccc21`: -8.87%; for `CC(C)NC(=O)CN1CCCNCC1`: -0.253%; for `COCCn1ccc2ccc(C(=O)O)cc21`: -9.99%. Regarding `CC(C)CCc1n[nH]c(C(=O)O)c1Cl`, the cytotoxicity at 70.5 h is 16.9%.

Consider `Nc1nc2c(c3c1C(=O)NC3=O)CCC2`, for which the cytotoxicity at 70.5 h is -14.7%.

For the molecule `O=C1NCCCc2c1oc1ccc(O)c(CN3CCOCC3)c21`, the cytotoxicity at 70.5 h turned out to be 30.3%.

Consider `NC(=O)CN1CC[C@@]2(O)CCCC[C@H]2[C@@H]1c1ccc2c(c1)OCO2`, for which the cytotoxicity at 70.5 h is -2.64%. Consider `COc1ccc(C(=O)N2CC[C@@]3(O)CCCC[C@H]3C2)cc1OC`, for which the cytotoxicity at 70.5 h stood at 5.36%.

In the case of `O=C(Cn1ccc2cc(Br)ccc21)NC[C@@H]1CCCN2CCCC[C@H]12`, the cytotoxicity at 70.5 h is 9.59%.

Consider `COC(=O)CNC(=O)Cn1ccc2cccc(OC)c21`, for which the cytotoxicity at 70.5 h was 7.12%. `CCC(C)N1C(=O)c2ccc(C(=O)NCCc3c[nH]cn3)cc2C1=O` (stereo unspecified): the cytotoxicity at 70.5 h was -2.09%. As to `COc1cccc2ccn(CC(=O)NCC(C)C)c12`, the cytotoxicity at 70.5 h worked out at 11.2%. Take `CC(=O)c1cn(CC(=O)N[C@H](C(=O)O)C(C)C)c2ccccc12`: the cytotoxicity at 70.5 h is -13.5%. The same measure for `CSCC[C@H](NC(=O)Cn1ccc2ccc(Cl)cc21)C(=O)O`: -16.7%; for `CC(=O)c1cn(CCC(=O)N[C@@H](CC(C)C)C(=O)O)c2ccccc12`: -7.76%.

For the molecule `O=C1CC(c2ccc(O)cc2)c2c(c(C(=O)O)cn2-c2ccccc2)N1` (stereo unspecified), the cytotoxicity at 70.5 h is -10.6%. Turning to `COc1cccc(-c2nc(C)c(C(=O)N[C@@H](CCSC)C(=O)O)s2)c1`, the cytotoxicity at 70.5 h was -21.7%. In the case of `CC(C)CNC(=O)c1cn(C)c(=O)c2ccccc12`, the cytotoxicity at 70.5 h was determined as 7.18%. In the case of `Cn1c(C(=O)N2CC[C@@]3(O)CCCC[C@H]3C2)cc2ccccc21` it was -3.98%; in that of `Cn1ccc2ccc(C(=O)N3CC[C@@]4(O)CCCC[C@H]4C3)cc21`, 7.95%.

On to `Cn1ccc2cc(C(=O)N3CC[C@@]4(O)CCCC[C@H]4C3)ccc21`, for which the cytotoxicity at 70.5 h is -13.9%.

In the case of `Cn1ccc2ccc(C(=O)NC3CCOC(C)(C)C3)cc21` (stereo unspecified), the cytotoxicity at 70.5 h was 8.55%. With `Cc1nn(-c2ncnc3[nH]cnc23)c2c1C(C(C)C)CC(=O)N2` (stereo unspecified), the cytotoxicity at 70.5 h was -1.6%. In the case of `COc1cc2nc(C)n(CC(=O)NCCO)c(=O)c2cc1OC` it was -8.13%; in that of `Cn1c(CN2CCCCC2)cc(=O)c(O)c1CN1CCCCC1`, 2.14%; in that of `COc1ccc(NC(=O)CCNc2ncccn2)cn1`, -30.9%. Take `COc1cc(C2CC(=O)Oc3cc(C)[nH]c(=O)c32)ccc1O` (stereo unspecified): the cytotoxicity at 70.5 h is -18.3%.

Turning to `COc1cc(OC)c(C2CC(=O)Oc3cc(C)[nH]c(=O)c32)c(OC)c1` (stereo unspecified), the cytotoxicity at 70.5 h is -20.1%. Take `COC(=O)CC(C1=Cc2ccccc2OC1)c1oc(C)cc(=O)c1O` (stereo unspecified): the cytotoxicity at 70.5 h came to 19.3%.

With `O=C(NCC1CCOCC1)c1cc(-c2ccc3c(c2)CCO3)n[nH]1`, the cytotoxicity at 70.5 h stood at 17.3%. Consider `C=C(C)COc1ccc(C(CC(=O)OC)c2oc(C)cc(=O)c2O)cc1` (stereo unspecified), for which the cytotoxicity at 70.5 h was -0.596%.

Turning to `O=c1[nH]cc(Nc2ccccc2)c(=O)[nH]1`, the cytotoxicity at 70.5 h worked out at 35%. In the case of `OCc1cc2ccccc2nc1N1CCCCC1`, the cytotoxicity at 70.5 h amounted to 31.2%. In the case of `CCOc1ccc2[nH]c3c(N(C)CC4OCCO4)ncnc3c2c1` it was -21.1%; in that of `Cc1noc(C)c1CN(C)C(=O)c1ccc(O)nc1`, -5.72%; in that of `COc1ccc(CNC(=O)NC(C)(C(=O)O)c2ccco2)cc1F` (stereo unspecified), 16.9%. In the case of `CC(NC(=O)NCc1cccc(F)c1)(C(=O)O)c1ccco1` (stereo unspecified), the cytotoxicity at 70.5 h was -8.22%.

For the molecule `COc1ccc(C(O)CNC(=O)NCc2c(C)cc(C)[nH]c2=O)cc1` (stereo unspecified), the cytotoxicity at 70.5 h was -5.03%. On to `CCOc1ccnc(N2CCN(C(=O)c3ccc(OC)cc3)CC2)n1`, for which the cytotoxicity at 70.5 h was -12.5%. As to `CCc1nnsc1C(=O)N1CCCC(n2ccnc2C(C)C)C1` (stereo unspecified), the cytotoxicity at 70.5 h is -5.12%.

On to `Cc1ccc(CC(=O)N2CCCC(n3ccnc3C(C)C)C2)cn1` (stereo unspecified), for which the cytotoxicity at 70.5 h is -7.44%. Consider `Cc1cc(CN2CCCC2c2c(C)nn(C)c2Cl)on1` (stereo unspecified), for which the cytotoxicity at 70.5 h was determined as 0.0053%. `CC(NC(=O)NCc1ccccc1F)(C(=O)O)c1ccco1` (stereo unspecified): the cytotoxicity at 70.5 h was -2.87%. On to `CC(NC(=O)CSCC#N)c1ccc(F)cc1` (stereo unspecified), for which the cytotoxicity at 70.5 h worked out at 10.1%. The same measure for `Cc1nccn1-c1cc(CNC(=O)CC2CCCO2)ccn1` (stereo unspecified): 16.3%; for `O=C(NCc1ccccc1Cn1cncn1)C1CCCC1`: -3.85%. `CN(Cc1cccc(O)c1)C(=O)Nc1cccnc1N1CCCC1`: the cytotoxicity at 70.5 h came out at 16.2%. The same measure for `CC(NC(=O)CSCC#N)c1ccc(Cl)cc1` (stereo unspecified): -4.42%. Take `Cc1ccoc1C(=O)NC1CCN(CC(=O)N(C)c2ccccc2)CC1`: the cytotoxicity at 70.5 h came to 18%. As to `Cc1ccc(C(=O)NC2CCN(CC(=O)N(C)c3ccccc3)CC2)o1`, the cytotoxicity at 70.5 h is -4.99%. `CN(C(=O)CN1CCC(NC(=O)c2cccs2)CC1)c1ccccc1`: the cytotoxicity at 70.5 h was -6.85%. On to `Cc1cccc(OCCN2CCC(c3ccnn3CCO)CC2)c1`, for which the cytotoxicity at 70.5 h is -7.3%.

Turning to `OCCn1nccc1C1CCN(CCOc2ccccc2)CC1`, the cytotoxicity at 70.5 h is 8.03%. As to `CCc1nc(C(=O)N2CCCCC2)nn1-c1ccccc1Cl`, the cytotoxicity at 70.5 h is -6.89%.

For `COc1c(CNCc2ccc3c(c2)OCO3)c(C(C)C)nn1C`, the cytotoxicity at 70.5 h came to 18.3%. For `CC(C)c1nn(C)c(N2CCOCC2)c1CNC(C)c1ccco1` (stereo unspecified), the cytotoxicity at 70.5 h was -2.73%. `CC(C)c1nn(C)c(N(C)C)c1CNCc1ccc(CO)c(F)c1`: the cytotoxicity at 70.5 h worked out at 1.57%. As to `Cc1nccn1-c1cc(CNC(=O)CCS(=O)(=O)C2CCCC2)ccn1`, the cytotoxicity at 70.5 h was 10.7%. `CN(C)c1ccc(C(=O)N2CCCC(n3cccn3)C2)nn1` (stereo unspecified): the cytotoxicity at 70.5 h was -4.36%. Regarding `CCc1nc(C(=O)N2CCOCC2)nn1-c1ccccc1Cl`, the cytotoxicity at 70.5 h was -3.34%.

In the case of `O=C(c1ccc(N2CCCC2)nn1)N1CCCC(n2ccnc2)C1` (stereo unspecified), the cytotoxicity at 70.5 h is -5.71%. In the case of `Cc1nc(C)n(CC2CN(CCOc3cccc(C#N)c3)CCO2)n1` (stereo unspecified), the cytotoxicity at 70.5 h was -6.4%. In the case of `Cc1cc(C(=O)N2CCOC(c3nc(C(C)C)n[nH]3)C2)c(C)s1` (stereo unspecified) it was -4.17%; in that of `CN(Cc1ccc(F)cc1)C(=O)Nc1cccnc1N1CCCC1`, -6.22%. As for `CC(C)c1n[nH]c(C2CN(C(=O)c3ncoc3C(C)C)CCO2)n1` (stereo unspecified), the cytotoxicity at 70.5 h was -2.71%. The same measure for `CC(Cn1cccn1)NCCCc1nc(-c2cccs2)no1` (stereo unspecified): 1.95%; for `CC1CCCCN1CCNC(=O)c1scnc1Cl` (stereo unspecified): -12.6%; for `CC(C)c1noc(C(C)N2CCN(Cc3cccnc3)CC2)n1` (stereo unspecified): -5.62%.

Turning to `CCC(O)CN1CCN(C(=O)c2cnc3n[nH]c(C)c3c2)CC1` (stereo unspecified), the cytotoxicity at 70.5 h was -7.48%. For `Cc1nc(C)n(CC2CN(Cc3ccc4c(c3)OCCO4)CCO2)n1` (stereo unspecified), the cytotoxicity at 70.5 h was -14.3%. In the case of `CCn1nc2c(cc1=O)CN(Cc1nc(C)c(C)o1)CC2` it was -15.3%; in that of `Cc1ncc2c(n1)CN(Cc1nc(-c3ccsc3)no1)CC2`, -21.5%.

Take `CC(c1nc(C(C)(C)C)no1)N1CCN(Cc2ccco2)CC1` (stereo unspecified): the cytotoxicity at 70.5 h is -15%.

As to `Cc1cnc2c(S(=O)(=O)NCC3CC3)cccc2c1`, the cytotoxicity at 70.5 h is -1.56%.

`O=C(NCc1ccc(Cl)s1)NCc1nnc2n1CCCCC2`: the cytotoxicity at 70.5 h is -14.9%. For the molecule `CC1CCN(CCNC(=O)c2scnc2Cl)CC1`, the cytotoxicity at 70.5 h came to 18.5%. In the case of `COc1ccnc(N2CCN(CC(=O)N3CCC(C)CC3)CC2)n1`, the cytotoxicity at 70.5 h is -13.2%. For `COCCN(CCOC)C(=O)Nc1cc(C(F)(F)F)c[nH]c1=O`, the cytotoxicity at 70.5 h is -15.1%. For the molecule `COc1ccnc(N2CCN(CC(=O)N3CCOC(C)C3)CC2)n1` (stereo unspecified), the cytotoxicity at 70.5 h was -8.38%. In the case of `Cc1nc2ccnn2c(C)c1CCC(=O)N1CCN2CCCCC2C1` (stereo unspecified) it was -9.21%. For `Cc1cc(C)n(C2CCCN(C(=O)c3csc(C4CC4)n3)C2)n1` (stereo unspecified), the cytotoxicity at 70.5 h is -11%. In the case of `CC(=O)Nc1nc(C(=O)N2CCCC(n3ccnc3C)C2)cs1` (stereo unspecified), the cytotoxicity at 70.5 h was -14.1%.

Take `CCc1ncc2c(n1)CN(Cc1nc(-c3cccnc3)no1)CC2`: the cytotoxicity at 70.5 h was -6.75%. With `CC(C)n1nc2c(cc1=O)CN(Cc1nc3ccccc3o1)CC2`, the cytotoxicity at 70.5 h was determined as 10.1%. For the molecule `O=C(c1cc[nH]n1)N1CCCC(c2cc(C(F)(F)F)[nH]n2)C1` (stereo unspecified), the cytotoxicity at 70.5 h was -17.8%. The same measure for `O=C(c1ccco1)N1CCCC(c2cc(C(F)(F)F)[nH]n2)C1` (stereo unspecified): -7.38%. With `Cc1cc(C2CCCN(C(=O)c3ccc(Cl)o3)C2)n[nH]1` (stereo unspecified), the cytotoxicity at 70.5 h is -8.12%. On to `Cn1ccnc1Sc1ccc(N)cn1`, for which the cytotoxicity at 70.5 h is 0.97%. On to `CCC(C)[C@H](N)c1nnc(SCC(=O)Nc2cc(C)ccc2C)o1` (stereo partly specified), for which the cytotoxicity at 70.5 h is -1.84%. Regarding `CC(C)C[C@H](N)c1nnc(SCC(=O)Nc2ccc(Br)cc2)o1`, the cytotoxicity at 70.5 h was -5.07%. `CC(C)c1nn(C)c(N(C)C)c1CNC(C)c1ccc2c(c1)OCO2` (stereo unspecified): the cytotoxicity at 70.5 h turned out to be 20%. `COc1ccc2[nH]cc(C(=O)CNc3nccs3)c2c1`: the cytotoxicity at 70.5 h was found to be 14.4%.

The record behind these values is ChEMBL document CHEMBL3507680, “University of Dundee, Gates Library screen for HepG2 cell viability”.
